Test results as given in patent publication US11773096B2, “Small-molecule PI5P4K alpha/beta inhibitors and methods of treatment using same” (YALE UNIVERSITY, priority 2018, dated 2023).
Entries after “also recorded” stand apart in the source; their conditions may differ. Each block holds one molecule with its values, some of them ahead of it.

Legend:
PI5P4Kα [1] = target: T1, PI5P4Kα (Homo sapiens, UniProt P48426); assay: Competitive fluorescent binding assay with TNP-ATP; parameters: made in house; conditions: displacement of 10 μM TNP-ATP from 6.8 μM PI5P4Kα
T1 sequence (P48426 1-406): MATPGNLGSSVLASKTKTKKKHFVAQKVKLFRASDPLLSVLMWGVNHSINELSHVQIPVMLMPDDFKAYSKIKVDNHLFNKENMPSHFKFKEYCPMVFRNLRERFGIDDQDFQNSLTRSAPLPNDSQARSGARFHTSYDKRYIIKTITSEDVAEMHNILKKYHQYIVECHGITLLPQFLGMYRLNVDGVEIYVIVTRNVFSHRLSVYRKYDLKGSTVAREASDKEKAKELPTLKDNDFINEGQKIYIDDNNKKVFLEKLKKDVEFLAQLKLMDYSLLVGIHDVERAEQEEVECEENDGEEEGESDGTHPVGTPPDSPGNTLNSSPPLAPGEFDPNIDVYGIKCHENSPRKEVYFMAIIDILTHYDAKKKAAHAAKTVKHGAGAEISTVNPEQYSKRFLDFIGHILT

AMPK = assay: Western blot of ACC phosphorylation by AMPK in myotubes (FIG. 3F); assay type: cell-based
Experimental: (§1) After wash with cold DPBS buffer, cells were lysed in RIPA buffer that contained 50 mM Tris-HCl pH 8.0, 150 mM NaCl, 1 mM EDTA, 1 mM EGTA, 1% NP-40, 0.5% sodium deoxycholate, 0.1% SDS, and protease and phosphatase inhibitor cocktails (Roche). Total protein concentrations were measured using a BCA assay (Thermo scientific). Cell lysate (about 80 μg protein) was resolved by SDS-PAGE and blotted onto PVDF membranes. The membranes were probed overnight at 4° C. with appropriate primary antibodies (Cell Signaling Technology) and incubated with secondary fluorescent antibodies (LI-COR Biosciences) for 1 hr at room temperature before imaging by an Odyssey CLx system.

PI5P4Kα [2] = target: T1, PI5P4Kα; assay: PI5P4Kα in vitro kinase assay based on ADP detection (ADP-Glo), kinetic studies; assay type: biochemical; parameters: made in house
Experimental: Lipid vesicles [2:1 mixture of DPPS and PI(5)P] were prepared by sonication and extrusion in a buffer containing 0.1% CHAPS, 20 mM HEPES pH 7.3, 200 mM NaCl, 20 mM MgCl2, aliquoted, and stored at −80° C. Immediately before assay, thawed lipid suspension was sonicated and extruded again, and mixed with PI5P4Kα freshly purified in the same buffer. […] 20 nl of library compound (10 mM DMSO solution) was transferred to the well by an Aquarius system (Tecan). The plates were shaken for 30 s. 1 μl ATP solution was then added to initiate the reaction (final concentrations: PI(5)P 100 μM; lipid kinase 2 μg/ml; ATP 40 μM; library compound 20 μM). After incubating at RT in the dark for 1 h, 5 μl ADP-Glom reagent (Promega) was added to stop the reaction. After 40 min further incubation, 10 μl Kinase Detection reagent (Promega) was added. After 30 min, the luminescence was measured with an EnVision Multimode Plate Reader.
In vitro kinase assay based on ADP (product) detection was performed similarly in a white solid-bottom 96-well plate (Corning 3600). Within each well, 10 μl final reaction mixture contains 100 μM PI(5)P, 2 μg/ml PI5P4Kα, 10 μM ATP (in FIG. 1B, ATP concentration varied from 10 μM to 100 μM), 10 mM MgCl2, 0.1% CHAPS and 20 mM HEPES pH 7.3. After reaction, 10 μl ADP-Glo™ reagent and 20 μl Kinase Detection reagent were used for luminescence reading. […]

PI5P4Kβ = target: T2, PI5P4Kβ (Homo sapiens, UniProt P78356); assay: PI5P4Kβ kinase assay, 32P-labelled PI(4,5)P2 product resolved by TLC
T2 sequence (P78356 1-416): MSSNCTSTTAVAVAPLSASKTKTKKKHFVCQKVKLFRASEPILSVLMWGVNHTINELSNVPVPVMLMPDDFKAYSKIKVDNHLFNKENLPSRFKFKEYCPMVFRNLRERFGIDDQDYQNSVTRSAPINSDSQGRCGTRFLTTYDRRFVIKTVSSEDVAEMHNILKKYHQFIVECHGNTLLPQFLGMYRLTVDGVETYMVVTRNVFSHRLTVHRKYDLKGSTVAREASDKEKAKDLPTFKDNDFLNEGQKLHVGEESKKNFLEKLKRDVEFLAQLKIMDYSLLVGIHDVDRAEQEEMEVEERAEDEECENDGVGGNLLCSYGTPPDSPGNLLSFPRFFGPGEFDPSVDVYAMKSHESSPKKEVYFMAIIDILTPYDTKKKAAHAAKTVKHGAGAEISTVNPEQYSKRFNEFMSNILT
Experimental: (§2) Within each well, 10 μl final reaction mixture contains 100 μM PI(5)P, 2 μg/ml PI5P4Kα, 10 μM ATP (in FIG. 1B, ATP concentration varied from 10 μM to 100 μM), 10 mM MgCl2, 0.1% CHAPS and 20 mM HEPES pH 7.3. […] Kinase assay based on PI(4,5)P2 (product) detection was carried out in a 50 μl assay mixture containing 40 μM PI(5)P, 0.4 μg/ml PI5P4Kα, 20 μM ATP (unless otherwise stated), 10 mM MgCl2, 20 mM HEPES pH 7.3, and 10 mCi [γ-^32P]-ATP for 1 h at RT. […] The reaction was terminated by 5 μl 12N HCl. After termination, 175 μl PBS buffer and 380 μl methanol/chloroform mix (1:1, v/v) containing 10 μg/ml bovine brain extract (type I; Folch Fraction I; Sigma Aldrich) were added. The lower organic phase, containing the extracted lipids, was collected and dried under vacuum. The dried lipids were re-suspended in 25 μl methanol/chloroform mix (2:1, v/v), and separated by thin-layer chromatography (TLC). For TLC, heat activated 1% potassium oxalate-coated silica gel 60 plates were used (20 cm×20 cm, Merck), and the running solvent contained water, acetic acid, methanol, acetone, and chloroform (3:32:24:30:64 mix by volume). Radiolabeled lipid product was quantified with a phosphor imager (Bio-Rad Molecular Imager FX). […] The inhibitor was usually incubated with the enzyme at RT for 20 min before the reaction was initiated.

PI5P4Kα [3] = target: T1, PI5P4Kα; assay: PI5P4Kα kinase assay, 32P-labelled PI(4,5)P2 product resolved by TLC
Experimental: as §2

L6 myotubes = assay: 2-deoxyglucose uptake; assay type: cell-based, rat; conditions: overnight treatment with 20 μM 7a or 1 mM metformin
Experimental: To measure 2-deoxyglucose (2-DG) uptake, L6 myotubes were treated with compound or DMSO control overnight in the absence of serum in α-MEM. Following treatment, cells were washed twice with KRH buffer (50 mM HEPES pH 7.4, 137 mM NaCl, 4.7 mM KCl, 1.85 mM CaCl2, 1.3 mM MgSO4) containing 0.1% BSA. Residual wash buffer was removed by aspiration. Cells were then incubated for 10 min at 37° C. in a KRH buffer containing 0.1% BSA, 5 mM unlabeled 2-DG and 2 μCi/ml [1,2-^3H(N)]-2-deoxy-D-glucose (PerkinElmer). The uptake was terminated by washing four times with ice-cold KRH buffer containing 0.1% BSA. Nonspecific 2-DG uptake into cells was determined in the presence of 10 μM cytochalasin B, which inhibits glucose transporters, and subtracted. The cells were lysed with 0.05 M NaOH for 2 hrs at 37° C. 10 μl cell lysate was used to quantify protein concentration by BCA assay. The remaining sample was transferred to a scintillation vial containing 3 ml Opti-Fluor liquid scintillation cocktail (PerkinElmer), and radioactivity was determined using a Beckman Coulter LS 6500 scintillation system and normalized against protein concentration.

myotubes = assay: Glucose consumption and lactate production in myotube culture media; assay type: cell-based
Experimental: To measure glucose consumption and lactate production, a total of 1×10^5 cells were seeded into each well of a 12-well plate and cultured in the presence of compound for 48 hrs. The culture media were collected and deproteinized by centrifugation using an Amicon Ultra centrifugal filter (3 kDa cut-off), while cells were lysed and used for protein concentration determination by BCA assay. The media were assayed immediately for glucose and lactate levels using colorimetric assay kits from BioVision following the manufacturer's protocols. The values were normalized against protein concentration. All measurements were made in triplicate.

C2Cl2 myotubes = assay: Immunoblot analysis of signaling in C2Cl2 myotubes; assay type: cell-based, mouse; conditions: FIG. 3E
Experimental: BT-474 and MCF7 breast cancer cells, C2Cl2 mouse myoblast cells, and HEK 293T cells were maintained in high-glucose DMEM medium containing 10% FBS. L6 rat myoblast cells were maintained in α-MEM medium containing 10% FBS. For differentiation into myotubes, C2Cl2 cells were kept in DMEM medium containing 2% horse serum for 5 days, and L6 cells were kept in α-MEM medium containing 2% FBS for 7 days. Amino-acid-free DMEM medium was prepared using powder from USBio, and MEM amino acids solution was from Gibco. Media were all supplemented with 100 U/ml penicillin/streptomycin. Cell lines were purchased from ATCC.
as §1

Kd (PI5P4Kα [1]): ~1300 nM
Ki (PI5P4Kα [2]; competitive with ATP): ~1000 nM
Structure (SMILES): CC(C)CCN1c2nc(Nc3cc(F)c(O)c(F)c3)ncc2N(C)C(=O)C1C (stereo not shown) [BI-D1870]
ACC phosphorylation / AMPK activation (AMPK): did not increase; also recorded: did not induce

Ki (PI5P4Kβ): 100 to 200 nM
Structure (SMILES): CN1C(=O)[C@@H](Cc2ccccn2)N(C2CCCC2)c2nc(Nc3ccc4[nH]nnc4c3)ncc21 [7k, (R)-2-((1H-benzo[d][1,2,3]triazol-5-yl)amino)-8-cyclopentyl-5-methyl-7-(pyridin-2-ylmethyl)-7,8-dihydropteridin-6(5H)-one]

Ki (PI5P4Kα [3]): 200 to 700 nM
Ki (PI5P4Kβ): 80 to 230 nM
Structure (SMILES): CN1C(=O)[C@@H](CC2CCCC2)N(C2CCCC2)c2nc(Nc3ccc4[nH]nnc4c3)ncc21 [7f, (R)-2-((1H-benzo[d][1,2,3]triazol-5-yl)amino)-8-cyclopentyl-7-(cyclopentylmethyl)-5-methyl-7,8-dihydropteridin-6(5H)-one]

Ki (PI5P4Kα [3]): 55 to 110 nM
Ki (PI5P4Kβ): 75 to 150 nM
Structure (SMILES): CN1C(=O)[C@@H](CC2CCCC2)N(C2CCCC2)c2nc(Nc3cc(F)c(C(=O)O)c(F)c3)ncc21 [7i, (R)-4-((8-cyclopentyl-7-(cyclopentylmethyl)-5-methyl-6-oxo-5,6,7,8-tetrahydropteridin-2-yl)amino)-2,6-difluorobenzoic acid]

Ki (PI5P4Kα [3]): 110 to 220 nM
Ki (PI5P4Kβ): 80 to 160 nM
Structure (SMILES): CN1C(=O)[C@@H](CC2CCCC2)N(C2CCCC2)c2nc(Nc3csc(C(=O)O)c3)ncc21 [7h, (R)-4-((8-cyclopentyl-7-(cyclopentylmethyl)-5-methyl-6-oxo-5,6,7,8-tetrahydropteridin-2-yl)amino)thiophene-2-carboxylic acid]

Structure (SMILES): CN(C)C(=N)N=C(N)N [metformin, reference compound]
rate of glucose uptake (labeled 2-deoxyglucose) (L6 myotubes): doubled
molar fraction of consumed glucose used for lactate fermentation (myotubes; 48 hours): 41%
lactate accumulated in the media (myotubes; 48 hours after treatment): 8.6 mM
reduction of glucose concentration in the media (myotubes; 48 hours after treatment): 10.6 mM

potency/affinity for PI5P4Kα in vitro (PI5P4Kα [3]): weaken the affinity
potency/affinity for PI5P4Kβ in vitro (PI5P4Kβ): no effect
Structure (SMILES): CN1C(=O)[C@@H](CC2CCCCC2)N(C2CCCC2)c2nc(Nc3cc(Cl)c(O)c(Cl)c3)ncc21 [7b, (R)-7-(cyclohexylmethyl)-8-cyclopentyl-2-((3,5-dichloro-4-hydroxyphenyl)amino)-5-methyl-7,8-dihydropteridin-6(5H)-one]
ACC phosphorylation / AMPK activation (AMPK): activated; also recorded: enhanced
selectivity between PI5P4Kα and PI5P4Kβ (PI5P4Kβ): more specific for PI5P4Kβ; also recorded: more potent against PI5P4Kβ than PI5P4Kα

Structure (SMILES): CS(=O)(=O)N1CCN(Cc2cc3nc(-c4cccc5[nH]ncc45)nc(N4CCOCC4)c3s2)CC1 [GDC-0941, reference compound]
insulin-induced Akt phosphorylation at Ser-473 (C2Cl2 myotubes): eliminated

Ki (PI5P4Kα [3]): 20 to 60 nM
Ki (PI5P4Kβ): 20 to 60 nM
Structure (SMILES): CN1C(=O)[C@@H](Cc2ccccn2)N(C2CCCC2)c2nc(Nc3cc(Cl)c(O)c(Cl)c3)ncc21 [7e, (R)-8-cyclopentyl-2-((3,5-dichloro-4-hydroxyphenyl)amino)-7-(pyridine-2-ylmethyl)-5-methyl-7,8-dihydropteridin-6(5H)-one]

Structure (SMILES): CC[C@@H]1C(=O)N(C)c2cnc(Nc3ccc(C(=O)NC4CCN(C)CC4)cc3OC)nc2N1C1CCCC1 [BI-2536]
ACC phosphorylation / AMPK activation (AMPK): did not increase; also recorded: did not induce

Structure (SMILES): C[C@@H]1COCCN1c1cc(=O)n2c(n1)N(Cc1cncc(Cl)c1)[C@H](C(F)(F)F)CC2 [SAR405, reference compound]
mTORC1 activation by amino acids (C2Cl2 myotubes): prevented

Kis for PI5P4Kα compared with BI-D1870 (PI5P4Kα [2]; ATP 10 μM): slightly higher
Structure (SMILES): CC[C@@H]1C(=O)N(C)c2cnc(Nc3ccc(C(=O)N[C@H]4CC[C@H](N5CCN(CC6CC6)CC5)CC4)cc3OC)nc2N1C(C)C [volasertib]

Ki (PI5P4Kα [3]): 50 to 100 nM
Ki (PI5P4Kβ): 400 to 800 nM
Structure (SMILES): CN1C(=O)[C@@H](Cc2ccccn2)N(C2CCCC2)c2nc(Nc3ncc(C(=O)O)s3)ncc21 [7j, (R)-2-((8-cyclopentyl-5-methyl-6-oxo-7-(pyridin-2-ylmethyl)-5,6,7,8-tetrahydropteridin-2-yl)amino)thiazole-5-carboxylic acid]

Ki (PI5P4Kα [3]): 30 to 90 nM
Ki (PI5P4Kβ): 100 to 280 nM
Structure (SMILES): CN1C(=O)[C@@H](CC2CCCC2)N(C2CCCC2)c2nc(Nc3ncc(C(=O)O)s3)ncc21 [7g, (R)-2-((8-cyclopentyl-7-(cyclopentylmethyl)-5-methyl-6-oxo-5,6,7,8-tetrahydropteridin-2-yl)amino)thiazole-5-carboxylic acid]
